Measured values from article PMC11839854, “Exploration of (R)-[^11C]YH168 as a PET tracer for imaging monoacylglycerol lipase in the brain: from mice to non-human primates” (European Journal of Nuclear Medicine and Molecular Imaging, 2024).
pIC50: −log10 of the molar value.

Experiments:
Type in all cases: biochemical
[1] = molecular target: T1, monoacylglycerol lipase (MAGL) (Homo sapiens, UniProt Q99685); experiment: enzymatic inhibition assay with human MAGL protein
T1 construct: gene MGLL
T1 sequence (Q99685 1-303): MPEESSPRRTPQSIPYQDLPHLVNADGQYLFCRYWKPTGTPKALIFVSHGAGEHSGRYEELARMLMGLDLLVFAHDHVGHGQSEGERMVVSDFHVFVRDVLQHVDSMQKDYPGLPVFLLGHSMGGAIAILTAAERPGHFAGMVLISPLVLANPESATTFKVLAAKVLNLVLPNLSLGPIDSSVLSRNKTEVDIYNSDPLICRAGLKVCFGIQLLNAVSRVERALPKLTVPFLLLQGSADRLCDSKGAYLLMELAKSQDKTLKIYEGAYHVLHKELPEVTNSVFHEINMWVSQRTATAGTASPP

[2] = molecular target: T2, monoacylglycerol lipase (MAGL) (Macaca fascicularis, UniProt A0A2K5V664); experiment: enzymatic inhibition assay with cynomolgus monkey MAGL protein
T2 sequence (A0A2K5V664 1-352): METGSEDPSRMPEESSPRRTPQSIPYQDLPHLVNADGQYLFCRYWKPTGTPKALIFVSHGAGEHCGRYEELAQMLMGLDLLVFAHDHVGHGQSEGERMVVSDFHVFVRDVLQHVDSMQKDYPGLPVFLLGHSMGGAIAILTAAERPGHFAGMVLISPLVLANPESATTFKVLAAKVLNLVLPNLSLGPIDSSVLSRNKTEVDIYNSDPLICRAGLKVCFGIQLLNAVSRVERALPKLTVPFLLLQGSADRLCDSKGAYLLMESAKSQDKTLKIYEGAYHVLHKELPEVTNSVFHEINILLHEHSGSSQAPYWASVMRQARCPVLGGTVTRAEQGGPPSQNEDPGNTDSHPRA

[3] = molecular target: T3, monoacylglycerol lipase (MAGL) (Mus musculus, UniProt O35678); experiment: enzymatic inhibition assay with mouse MAGL protein; supported by autoradiography and PET in wild-type vs MAGL knockout mice
T3 construct: gene Mgll
T3 sequence (O35678 1-303): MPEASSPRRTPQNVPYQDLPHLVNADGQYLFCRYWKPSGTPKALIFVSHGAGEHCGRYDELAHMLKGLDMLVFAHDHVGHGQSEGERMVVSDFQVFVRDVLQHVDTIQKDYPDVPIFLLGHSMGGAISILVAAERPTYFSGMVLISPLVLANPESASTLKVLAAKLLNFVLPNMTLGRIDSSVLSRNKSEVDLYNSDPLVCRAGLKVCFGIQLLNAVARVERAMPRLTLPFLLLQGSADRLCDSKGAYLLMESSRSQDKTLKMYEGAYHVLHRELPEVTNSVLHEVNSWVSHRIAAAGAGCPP

Q: `Cc1cccc(-c2ccc(N3C[C@H](N4CCN(C(=O)c5ccco5)CC4)CC3=O)cc2)c1` [(R)-YH168] was tested. Which pIC50 [1] did it give?
A: Its pIC50 is 8.40.

Q: And the pIC50 [2]?
A: The pIC50 was 8.57.

Q: What about the pIC50 [3] of the same compound?
A: Its pIC50 is 8.42.
